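Exposure lasted 48 hours, with cells grown in 96-well plates and compounds tested at five concentrations. GI50 marks 50% less growth.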 Activity calls are given as the source filed them. Rule as the data show it: active = GI50 up to about 1.1 µM and inactive = higher.
Assays:
Test in all cases: growth of human tumour cells (NCI), 48 h
OVCAR-4 = tested on: OVCAR-4
NCI-H460 = tested on: NCI-H460
HL-60 = tested on: HL-60
A549 = tested on: A549
NCI-H226 = tested on: NCI-H226
CCRF-CEM = tested on: CCRF-CEM
MOLT-4 = tested on: MOLT-4
ACHN = tested on: ACHN
HT-29 = tested on: HT-29
PC-3 = tested on: PC-3
HCT-116 = tested on: HCT-116
DU-145 = tested on: DU-145
KM12 = tested on: KM12
A498 = tested on: A498
UACC-62 = tested on: UACC-62
LOX IMVI = tested on: LOX IMVI
786-0 = tested on: 786-0
SK-MEL-2 = tested on: SK-MEL-2
SF-295 = tested on: SF-295
Malme-3M = tested on: Malme-3M

| SMILES | GI50 (OVCAR-4) | GI50 (NCI-H460) | GI50 (HL-60) | GI50 (A549) | GI50 (NCI-H226) | GI50 (CCRF-CEM) | GI50 (MOLT-4) | GI50 (ACHN) | GI50 (HT-29) | GI50 (PC-3) | GI50 (HCT-116) | GI50 (DU-145) | GI50 (KM12) | GI50 (A498) | GI50 (UACC-62) | GI50 (LOX IMVI) | GI50 (786-0) | GI50 (SK-MEL-2) | GI50 (SF-295) | GI50 (Malme-3M) |
| --- | --- | --- | --- | --- | --- | --- | --- | --- | --- | --- | --- | --- | --- | --- | --- | --- | --- | --- | --- | --- |
| CC1=NN(c2nc(N)nc(COCc3nc(N)nc(N4N=C(C)CC4(C)C)n3)n2)C(C)(C)C1 | > 100 µM (inactive) | > 100 µM (inactive) | > 100 µM (inactive) | > 100 µM (inactive) | > 100 µM (inactive) | > 100 µM (inactive) | > 100 µM (inactive) | > 100 µM (inactive) | > 100 µM (inactive) | > 100 µM (inactive) | > 100 µM (inactive) | > 100 µM (inactive) | > 100 µM (inactive) | > 100 µM (inactive) | > 100 µM (inactive) | > 100 µM (inactive) | > 100 µM (inactive) | > 100 µM (inactive) | > 100 µM (inactive) |  |
| CC(NC(=O)c1ccc(Cl)c(Cl)c1)c1ccc(-c2ccccc2)cc1 (stereo not given) | 16.4 µM (inactive) | 47.4 µM (inactive) | 4.58 µM (inactive) | 16.4 µM (inactive) | 31.3 µM (inactive) |  |  | 50.1 µM (inactive) | 71.6 µM (inactive) | 28.2 µM (inactive) | 59.3 µM (inactive) | 18.3 µM (inactive) | 57.7 µM (inactive) | 28.9 µM (inactive) | 31.6 µM (inactive) | 38.3 µM (inactive) | 22.5 µM (inactive) | > 100 µM (inactive) | 29.9 µM (inactive) | 21.5 µM (inactive) |
| CCOP(=O)(OCC)/C(C#N)=C/c1c[nH]c2ccccc12 | > 100 µM (inactive) | > 100 µM (inactive) | > 100 µM (inactive) | > 100 µM (inactive) | > 100 µM (inactive) |  |  | > 100 µM (inactive) | > 100 µM (inactive) | > 100 µM (inactive) | > 100 µM (inactive) | > 100 µM (inactive) | > 100 µM (inactive) | > 100 µM (inactive) | > 100 µM (inactive) | > 100 µM (inactive) | > 100 µM (inactive) | > 100 µM (inactive) | > 100 µM (inactive) | > 100 µM (inactive) |
| CCNC(=S)Nc1c(C#N)c2n(c1C(=O)OCC)CCCCC2 | > 100 µM (inactive) | > 100 µM (inactive) | > 100 µM (inactive) |  | > 100 µM (inactive) | > 100 µM (inactive) | > 100 µM (inactive) | > 100 µM (inactive) | > 100 µM (inactive) | > 100 µM (inactive) | > 100 µM (inactive) | > 100 µM (inactive) | > 100 µM (inactive) | > 100 µM (inactive) | > 100 µM (inactive) | > 100 µM (inactive) | 76.4 µM (inactive) | > 100 µM (inactive) | > 100 µM (inactive) |  |
| COc1ccc(C2SCC(=O)N2c2ccc(-n3c(-c4ccccc4)nc4ccccc4c3=O)cc2)cc1 (stereo not given) | > 100 µM (inactive) | > 100 µM (inactive) | > 100 µM (inactive) | > 100 µM (inactive) | > 100 µM (inactive) | > 100 µM (inactive) | 24.6 µM (inactive) | > 100 µM (inactive) | > 100 µM (inactive) | 42.1 µM (inactive) | > 100 µM (inactive) | > 100 µM (inactive) | 90.8 µM (inactive) | > 100 µM (inactive) | 17.8 µM (inactive) | > 100 µM (inactive) | > 100 µM (inactive) | 6.95 µM (inactive) | > 100 µM (inactive) |  |
| C1=Nc2sc3c(c2C2=NCCN12)CCCC3 | 20.6 µM (inactive) | 17.5 µM (inactive) | 13.6 µM (inactive) |  | 13.3 µM (inactive) |  | 13.8 µM (inactive) | 17.1 µM (inactive) | 18.1 µM (inactive) | 16.7 µM (inactive) | 16.3 µM (inactive) | 16.3 µM (inactive) | 17.2 µM (inactive) | 20.6 µM (inactive) | 15.4 µM (inactive) | 14.7 µM (inactive) | 17.4 µM (inactive) | 0.465 µM (active) | 21.5 µM (inactive) | 16.9 µM (inactive) |

From ChEMBL document CHEMBL1201862, “PubChem BioAssay data set” (2004)
